These results are taken from patent publication US20130261178A1, “PHENOXYPROPANOL DERIVATIVES AND THEIR USE IN TREATING CARDIAC AND CARDIOVASCULAR DISEASES” (priority 2010, published 2013).

Each structure is given as a SMILES string.

For series [1], the target named is T1, human beta2-adrenoceptor (Homo sapiens, UniProt P07550).
T1 construct: expressed in transfected cells; host or cells: CHO cells
Kind of series: 3H-CGP12177 whole-cell binding, CHO cells expressing human beta2-adrenoceptor. The following applies: 3H-CGP 12177 whole cell binding, mean ± s.e.mean; for Kd: log KD, read-out: Beta 2 Log KD (converted). From the text: (§1) The selectivity of a ligand is given by the ratio of beta-1 to beta-2 KD.

Series [2] addresses T2, human beta3-adrenoceptor (Homo sapiens, UniProt P13945).
T2 construct: expressed in transfected cells; host or cells: CHO cells
Kind of series: 3H-CGP12177 whole-cell binding, CHO cells expressing human beta3-adrenoceptor. The following applies: 3H-CGP 12177 whole cell binding, log KD, mean ± s.e.mean, read-out: Beta 3 Log KD (converted).

The target in series [3] is T3, beta1-adrenoceptor (Homo sapiens, UniProt P08588). Kind of series: 3H-CGP12177 whole-cell binding, CHO cells expressing human beta1-adrenoceptor. The arrangement: expressed in transfected cells; host or cells: CHO cells. The following applies: 3H-CGP 12177 whole cell binding, mean ± s.e.mean; for Kd: log KD, read-out: Beta 1 Log KD (converted).
Text: as §1
Target sequence in this assay (P08588 whole entry): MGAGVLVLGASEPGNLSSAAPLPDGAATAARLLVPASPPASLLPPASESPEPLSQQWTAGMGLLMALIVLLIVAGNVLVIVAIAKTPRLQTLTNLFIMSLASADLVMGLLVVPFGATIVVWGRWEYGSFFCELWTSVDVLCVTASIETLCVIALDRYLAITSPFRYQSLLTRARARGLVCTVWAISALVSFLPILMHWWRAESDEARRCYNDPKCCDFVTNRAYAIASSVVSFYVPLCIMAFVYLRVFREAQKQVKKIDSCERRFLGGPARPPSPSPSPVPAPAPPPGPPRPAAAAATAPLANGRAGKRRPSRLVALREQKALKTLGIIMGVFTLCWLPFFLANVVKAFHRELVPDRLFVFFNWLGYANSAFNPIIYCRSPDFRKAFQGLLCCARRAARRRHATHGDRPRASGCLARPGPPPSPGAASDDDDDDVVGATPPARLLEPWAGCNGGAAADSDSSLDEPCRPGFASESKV

Series [4] deals with T3, beta1-adrenoceptor. The following applies: background statement; cited from earlier work.
Target sequence in this assay (P08588 whole entry, species assumed): as the sequence (P08588 whole entry) above
For series [5], the system named is conscious, freely-moving rats. Kind of series: regional haemodynamics in conscious, freely-moving rats (responses to salbutamol and isoprenaline). Format: in vivo, rat. The following applies: atropine-treated rats. An excerpt: Preliminary assessment of the action of one of the compounds of the invention was undertaken using an in vivo model for monitoring regional haemodynamics in conscious, freely-moving rats (Gardiner & Bennett, Am J Physiol. 1988 October; 255(4 Pt 2):H813-24). This model has the distinct advantage of enabling measurement of regional blood flow in addition to blood pressure in the fully conscious state.

T2 sequence (P13945 whole entry): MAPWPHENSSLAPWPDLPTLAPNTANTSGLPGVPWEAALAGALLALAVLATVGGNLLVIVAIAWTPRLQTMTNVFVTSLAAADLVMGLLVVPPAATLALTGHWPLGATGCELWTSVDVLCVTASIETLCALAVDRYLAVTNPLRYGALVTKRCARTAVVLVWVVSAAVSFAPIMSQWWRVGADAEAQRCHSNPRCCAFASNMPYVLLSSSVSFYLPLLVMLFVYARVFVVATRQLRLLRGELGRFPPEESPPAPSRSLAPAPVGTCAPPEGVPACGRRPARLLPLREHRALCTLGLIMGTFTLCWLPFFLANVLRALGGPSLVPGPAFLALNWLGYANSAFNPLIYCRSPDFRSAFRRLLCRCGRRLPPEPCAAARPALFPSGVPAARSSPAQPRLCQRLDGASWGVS
T1 sequence (P07550 whole entry): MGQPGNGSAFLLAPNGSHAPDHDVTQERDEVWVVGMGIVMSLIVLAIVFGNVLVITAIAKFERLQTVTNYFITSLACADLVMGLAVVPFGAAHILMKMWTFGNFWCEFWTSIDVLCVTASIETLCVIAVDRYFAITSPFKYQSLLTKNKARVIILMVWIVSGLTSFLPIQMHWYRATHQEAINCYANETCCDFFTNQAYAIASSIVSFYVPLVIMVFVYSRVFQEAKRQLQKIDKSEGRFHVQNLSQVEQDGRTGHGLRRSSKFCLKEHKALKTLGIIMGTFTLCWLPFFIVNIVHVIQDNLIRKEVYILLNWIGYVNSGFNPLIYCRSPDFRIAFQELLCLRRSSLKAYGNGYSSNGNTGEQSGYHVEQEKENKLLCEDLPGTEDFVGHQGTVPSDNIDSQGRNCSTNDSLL

By melting point is commonly meant the temperature of the solid-liquid transition. By Kd is commonly meant the constant that tells how readily two partners part at equilibrium. The compound `O=C(NCCNCC(O)COc1ccc(OCCOC2CCCC2)cc1)Nc1cccc(C(F)(F)F)c1` (stereo not shown) [47r] registered a melting point of 96 to 98 °C. For the same compound, the “Beta 2 Log KD” value in series [1] is −5.86 ± 0.06. For the same compound, the Kd in series [2] is 11.5 µM. Further, the “Beta 1 Log KD” value in series [3] is given as −7.77 ± 0.06.
`O=C(NCCNCC(O)COc1ccc(OCCOC2CCCC2)cc1)Nc1cccc(Br)c1` (stereo not shown) [47o] registered a melting point of 120 to 122 °C. Further, the Kd in series [2] is 10.2 µM. In series [3], the “Beta 1 Log KD” value is on record as −7.92 ± 0.05.
For `O=C(NCCNCC(O)COc1ccc(OCCOC2CCCC2)cc1)Nc1cccc(F)c1` (stereo not shown) [47i], the melting point fell in the range of 108 to 110 °C. Besides, the “Beta 2 Log KD” value in series [1] was −6.54 ± 0.02. For the same compound, the dissociation constant Kd in series [2] is 18.6 µM. The “Beta 1 Log KD” value in series [3] is given as −8.17 ± 0.03.
Consider `O=C(NCCNCC(O)COc1ccc(OCCOCCc2ccc(F)cc2)cc1)Nc1ccc(O)cc1` (stereo not shown) [46b], for which the melting point lay within 113 to 115 °C. In addition, the Kd in series [1] is 1.02 µM. Moreover, the Kd in series [2] was 1.12 µM. The “Beta 1 Log KD” value in series [3] is reported as −8.50 ± 0.07.
Turning to `O=C(NCCNCC(O)COc1ccc(OCCOC2CCCC2)cc1)Nc1ccc(C(F)(F)F)cc1` (stereo not shown) [47s], the melting point lay within 134 to 136 °C. The “Beta 2 Log KD” value in series [1] was −5.76 ± 0.04. Further, the Kd in series [2] is 11.7 µM. The “Beta 1 Log KD” value in series [3] was −7.70 ± 0.04.
As for `O=C(NCCNCC(O)COc1ccc(OCCOC2CCCC2)cc1)Nc1ccccc1Cl` (stereo not shown) [47k], the melting point lay in the range of 99 to 103 °C. Also, the Kd in series [2] was 18.6 µM. In addition, the “Beta 1 Log KD” value in series [3] was −7.11 ± 0.03.
`COc1cccc(NC(=O)NCCNCC(O)COc2ccc(OCCOC3CCCC3)cc2)c1` (stereo not shown) [47f] gave a melting point of 103 to 110 °C. Further, in series [1], the “Beta 2 Log KD” value is on record as −6.05 ± 0.03. The Kd in series [2] was 17.4 µM. For the same compound, in series [3], the “Beta 1 Log KD” value is recorded as −7.76 ± 0.03.
Turning to `O=C(NCCNCC(O)COc1ccc(OCCOC2CCCC2)cc1)Nc1ccc(O)cc1` (stereo not shown) [47v], the melting point was in the range of 135 to 138 °C. For the same compound, in series [1], the “Beta 2 Log KD” value is recorded as −5.45 ± 0.10. In series [2], the dissociation constant Kd is 8.32 µM. For the same compound, the Kd in series [3] is 0.00692 µM.
Regarding `O=C(NCCNCC(O)COc1ccc(OCCOC2CCCC2)cc1)c1ccccc1F` (stereo not shown) [54g], the melting point lay in the range of 75 to 76 °C. The Kd in series [1] is 1.74 µM. Also, the Kd in series [2] was 3.09 µM. Further, the Kd in series [3] is 0.204 µM.
`Cc1ccc(NC(=O)NCCNCC(O)COc2ccc(OCCOC3CCCC3)cc2)cc1` (stereo not shown) [47d] returned a melting point of 142 to 144 °C. Also, the Kd in series [2] is 22.9 µM. Further, the “Beta 1 Log KD” value in series [3] is −7.76 ± 0.04.
The compound `COc1ccccc1NC(=O)NCCNCC(O)COc1ccc(OCCOC2CCCC2)cc1` (stereo not shown) [47e] had a melting point of 78 to 83 °C. Besides, the “Beta 2 Log KD” value in series [1] was −5.93 ± 0.02. Further, the Kd in series [2] is 13.8 µM. In series [3], the “Beta 1 Log KD” value is given as −7.02 ± 0.04.
With `CCOCCOc1ccc(OC[C@@H](O)CNCCc2ccc(OC)c(OC)c2)cc1` [D-140S], in series [4], the β1-selectivity was 4.400 fold.
In turn, `O=C(NCCNCC(O)COc1ccc(OCCOC2CCCC2)cc1)Nc1ccccc1C(F)(F)F` (stereo not shown) [47q] yielded a melting point of 128 to 130 °C. Besides, the “Beta 2 Log KD” value in series [1] was −5.84 ± 0.02. The Kd in series [2] was 24 µM. The “Beta 1 Log KD” value in series [3] was −6.94 ± 0.01.
Take `O=C(NCCNCC(O)COc1ccc(OCCOCC2CC2)cc1)Nc1ccc(O)cc1` (stereo not shown) [46a]: the “beta1-adrenoceptor selectivity in a conscious rat cardiovascular model” value in series [5] (10 mg/kg i.v.) is “highly beta1-adrenoceptor selective”. In addition, in series [5] (n=4, after 46a 10 mg/kg i.v., before +55±14), the “reflex heart rate response to salbutamol” value was “+7±4 beats/min”. Besides, in series [5] (n=4, after 46a 10 mg/kg i.v., before +74±12), the isoprenaline-induced tachycardia result was “+11±4 beats/min”. Further, in series [5] (n=4, after 46a 10 mg/kg i.v., before +106±20), the “increase in hindquarters vascular conductance (salbutamol)” value is reported as “+98±15%”. In addition, the “increase in hindquarters vascular conductance (isoprenaline)” value in series [5] (n=4, after 46a 10 mg/kg i.v., before +126±20) is “+129±19%”. Besides, the “hypotension (salbutamol)” value in series [5] (n=4, after 46a 10 mg/kg i.v., before −11±1) was −11±3 mmHg. For the same compound, in series [5] (n=4, after 46a 10 mg/kg i.v., before −19±3), the “hypotension (isoprenaline)” value is on record as −18±2 mmHg. In addition, the Kd in series [1] was > 100 µM; in series [2] it was 24.5 µM; in series [3], 0.0302 µM.
The compound `O=C(NCCNCC(O)COc1ccc(OCCOC2CCCC2)cc1)Nc1ccccc1` (stereo not shown) [47a] had a melting point of 109 to 115 °C. In series [1], the Kd was 3.02 µM. Besides, the Kd in series [2] is 24 µM. In addition, the Kd in series [3] is 0.0126 µM.
For the compound `Cc1ccccc1NC(=O)NCCNCC(O)COc1ccc(OCCOC2CCCC2)cc1` (stereo not shown) [47b], the melting point was in the range of 114 to 115 °C. Further, the “Beta 2 Log KD” value in series [1] is recorded as −6.27 ± 0.02. Further, in series [2], the Kd was 17.4 µM. Also, the “Beta 1 Log KD” value in series [3] is −7.33 ± 0.03.
`O=C(NCCNCC(O)COc1ccc(OCCOC2CCCC2)cc1)Nc1ccc(F)cc1` (stereo not shown) [47j]: the melting point lay within 130 to 133 °C. In addition, in series [1], the “Beta 2 Log KD” value is −5.92 ± 0.09. For the same compound, the Kd in series [2] was 24.5 µM. Moreover, the “Beta 1 Log KD” value in series [3] is −7.70 ± 0.04.
Compound `OC(CNCCOc1ccccc1)COc1ccc(OCCOC2CCCC2)cc1` (stereo not shown) [compound 48, 1-(2-Phenoxyethylamino)-3-(4-(2-(cyclopentyloxy)ethoxy)phenoxy)propan-2-ol] came in with a melting point of 155 to 157 °C. Besides, the Kd in series [1] is 0.912 µM. Further, the Kd in series [2] is 4.47 µM. The Kd in series [3] was 0.0347 µM.
`O=C(NCCNCC(O)COc1ccc(OCCOC2CCCC2)cc1)Nc1ccc(F)c(F)c1` (stereo not shown) [54a, 1-(2-(3-(4-(2-(Cyclopentyloxy)ethoxy)phenoxy)-2-hydroxypropylamino)ethyl)-3-(3,4-difluorophenyl)urea]: the melting point lay in the range of 113 to 115 °C. Further, the Kd in series [1] was 1.32 µM. In addition, the dissociation constant Kd in series [2] was 8.91 µM. The Kd in series [3] was 0.00955 µM.
Turning to `COc1ccc(NC(=O)NCCNCC(O)COc2ccc(OCCOC3CCCC3)cc2)cc1` (stereo not shown) [47g], the melting point is 121 to 125 °C. In series [1], the “Beta 2 Log KD” value is −5.86 ± 0.04. Moreover, the Kd in series [2] is 20 µM. Moreover, the “Beta 1 Log KD” value in series [3] is given as −7.80 ± 0.04.
In turn, `O=C(NCCNCC(O)COc1ccc(OCCOC2CCCC2)cc1)c1cccc(F)c1` (stereo not shown) [54h] registered a melting point of 85 to 86 °C. Further, the Kd in series [1] is 0.55 µM. For the same compound, in series [2], the Kd is 1.12 µM. In series [3], the Kd is 0.0741 µM.
Turning to `O=C(NCCNCC(O)COc1ccc(OCCOC2CCCC2)cc1)Nc1ccc(Cl)cc1` (stereo not shown) [47m], the melting point was in the range of 133 to 140 °C. Moreover, the “Beta 2 Log KD” value in series [1] is listed as −5.91 ± 0.86. For the same compound, the Kd in series [2] is 13.5 µM. In addition, the “Beta 1 Log KD” value in series [3] is listed as −7.95 ± 0.05.
Turning to `O=C(NCCNCC(O)COc1ccc(OCCOC2CCCC2)cc1)Nc1ccccc1F` (stereo not shown) [47h], the melting point was in the range of 115 to 117 °C. Moreover, the “Beta 2 Log KD” value in series [1] is listed as −5.94 ± 0.04. Also, the Kd in series [2] is 21.4 µM. In addition, the “Beta 1 Log KD” value in series [3] is reported as −7.82 ± 0.03.
For `O=C(NCCNCC(O)COc1ccc(OCCOC2CCCC2)cc1)Nc1ccc(Br)cc1` (stereo not shown) [47p], in that order: 148 to 150 °C, −5.86 ± 0.04, 9.33 µM and −7.77 ± 0.04.
`O=C(NCCNCC(O)COc1ccc(OCCOC2CCCC2)cc1)c1ccc(F)cc1` (stereo not shown) [54i] yielded a melting point of 99 to 100 °C. The Kd in series [1] is 0.363 µM. Further, in series [2], the Kd was 2.04 µM. For the same compound, in series [3], the Kd is 0.0275 µM.
